Experimental findings from paper PMC4686210, “Binding of Cyclic Di-AMP to the Staphylococcus aureus Sensor Kinase KdpD Occurs via the Universal Stress Protein Domain and Downregulates the Expression of the Kdp Potassium Transporter” (Journal of Bacteriology, 2015) are described below.

This assay has as its target T1, KdpD (sensor histidine kinase KdpD, KdpD^Sa) (Staphylococcus aureus, UniProt Q2FWH7).
T1 construct: USP domain, amino acids E225 to F383, MBP fusion [MBP-KdpD(USP)]
Description: DRaCALA with […]-c-di-AMP and purified MBP-KdpD(USP); cold nucleotide competition. The format is binding.

T1 sequence (Q2FWH7 225-383): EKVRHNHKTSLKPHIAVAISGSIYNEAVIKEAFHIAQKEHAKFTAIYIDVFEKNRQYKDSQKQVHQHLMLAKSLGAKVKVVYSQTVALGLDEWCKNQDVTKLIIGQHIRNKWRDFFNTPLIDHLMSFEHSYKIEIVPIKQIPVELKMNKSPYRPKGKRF

As for `Nc1ncnc2c1ncn2[C@@H]1O[C@@H]2COP(=O)(O)O[C@H]3[C@@H](O)[C@H](n4cnc5c(N)ncnc54)O[C@@H]3COP(=O)(O)O[C@H]2[C@H]1O` [c-di-AMP], the affinity, expressed as Kd, was 2000 ± 180 nM.
